Where two headings read alike, the source gives them in different places.
Experiments:
[1] = molecular target: T1, whole blood from homozygous sickle cell patients, Hb(S) (Homo sapiens, UniProt P68871+P69905, E7V); test: Reverse Hemox assay (oxygen equilibrium curves), whole blood; assay type: cell-based; details: for Whole Blood OEC (delta p50%): [Hb] 1 mM; for p50: whole blood from sickle cell disease patients, control blood p50 30 mm Hg; for Reverse Hemox delta p50% (class) / Reverse Hemox delta p50%: 1 mM compound, whole blood, hematocrit 20%; for Reverse Hemox delta p50%: 1 hour 37° C.
T1 construct: Oxygen Equilibrium Curves (OEC) of whole blood before and after treatment; from tissue; host or cells: whole blood (or washed red blood cells) of homozygous sickle cell patients
Description: (§1) Oxygen Equilibrium Curves (OEC) of whole blood before and after treatment with different concentrations of compounds 12, 22 and 23 were performed as follows using a HEMOX analyzer (TCS Scientific, New Hope, Pa.). Blood samples from homozygous sickle cell patients were obtained though the Hemoglobinopathy Center at Children's Hospital Oakland Research Institute (CHORI) with Institutional Review Board approval. The hematocrit was adjusted to 20% using autologous plasma and the blood samples were incubated for 1 hour at 37° C. in absence or presence of compounds. 100 μl of these samples were added to 5 mL of Hemox butter (30 mM TES, 130 mM NaCl, 5 mM KCl, pH=7.4) at 37° C. and then transferred to the Hemox sample chamber. The samples were saturated with oxygen by flushing with compressed air for 10 minutes. The samples were then flushed with pure nitrogen and the respective absorbances of oxy- and deoxy-Hb are recorded as a function of the solution pO2. The oxygen equilibrium data were then fitted to the Hill Model to obtain values for p50. The deoxygenation curves for both whole blood alone (control) and whole blood in the presence of the compound were collected with the TCS software.
Results: Table 3 below lists the delta p50% values where “+” indicates a delta p50% of between 0 and 29, “++” indicates a delta p50% of between 30 and 50, and “+++” indicates a delta p50% of 50 or greater.
(§2) Reverse hemox assay was performed essentially as described in Example 2, above, using either washed red blood cells or whole blood.

HbS [2] = molecular target: T2, HbS (Homo sapiens, UniProt P68871+P69905, E7V); test: 96-well oxygen dissociation assay (ODA); assay type: biochemical; details: [Hb] 3 μM; [cmp] 1 μM
washed red blood cells = test: Reverse Hemox assay (OEC), washed red blood cells; assay type: cell-based, human
Description: as §1, §2
Results: Table 4, below, indicates the percent change in p50 (delta p50%) for each compound tested. In the washed red blood cells (RBCs), 5-HMF, compound 5, and compound 12 (1 mM compound) gave p50 of 20, 9 and 7 mm Hg, respectively, compared to the control red blood cells (delta p50=30 mm Hg). To determine the effects of plasma proteins on compound activity. OECs were measured in whole blood from sickle cell disease patients. 5-HMF, compound 5, compound 9, and compound 12 gave p50 of 27, 18, 11 and 6 mm Hg, respectively, compared to the control blood p50 of 30 mm Hg.

HbS [3] = molecular target: T2, HbS; test: 96-well oxygen dissociation assay (ODA); assay type: biochemical; details: for potency at increasing the oxygen affinity of HbS compared with 5-HMF: 96-well ODA; for Hb in ODA (Δoxy state): [Hb] 3 μM, [cmp] 3 μM
Text: Results: Table 4 below lists the change in oxygen affinity (Δoxy state). After two hours of passive deoxygenation, compound 12, at an equimolar concentration to Hb, increased the Hb oxygen affinity by 6-fold.

[4] = tested on: sickle cell disease patient whole blood (ssRBCs); test: Viscosity assay, hypoxic sickle cell blood; assay type: cell-based, human; details: [Hb] 1.5 mM, two hours of hypoxia
Description: Sickle cell disease patients develop anemia as a means for the circulatory system to compensate for increase in blood viscosity caused by the non-deformable sickle cell red blood cells (ssRBCs). The effects of 5-HMF, compound 5, compound 9, or compound 12 were tested on sickle cell disease patient blood rheology to determine if these compounds decrease the viscosity of ssRBCs that have undergone hypoxia. Using blood from patients with sickle cell disease, whole blood (30% hematocrit, ˜1.5 mM Hb) was incubated with 5-HMF, compound 5, compound 9, or compound 12 during exposure to two hours of hypoxia (2.4% 02). A cone-plate viscometer was used to measure the viscosity at shear rates ranging from 60 s^−1 to 415 s^−1.

HbS/A = molecular target: T3, HbS/A (Homo sapiens, UniProt P68871+P69905, E7V); test: R/T assay (relaxed-to-tense transition); assay type: biochemical; details: HbS/A 3 μM
T3 construct: A mixture of HbS/A was purified from blood obtained from homozygous sickle cell patients; from tissue; host or cells: blood of homozygous sickle cell patients
Description: This ability can be expressed as a “delta R” value (i.e., the change in the time-period of the R state after hemoglobin is treated with a compound, as compared to the period without treatment with the compound). Delta R is the % R to remaining after the compounds treatment compared with no treatment (e.g., if R % without treatment is 8% while with treatment with a target compound is 48% R at 30 μM, then % R is 40% for that compound.
A mixture of HbS/A was purified from blood obtained from homozygous sickle cell patients though the Hemoglobinopathy Center at Children's Hospital Oakland Research Institute (CHORI) with Institutional Review Board approval. HbS/A (at a final concentration of 3 μM) was incubated for 1 hr at 37° C. in presence or absence of compounds in […] potassium phosphate buffer, pH=7.4 and 30 μM 2,3 diphosphoglycerate (DPG) in 96 well plates in a final volume of 160 μl. Compounds were added at different concentrations (3 μM to 100 μM final concentrations). Plates were covered with a Mylar film. After incubation was completed the Mylar cover was removed and the plates were placed in a Spectrostar Nano plate reader previously heated at 37° C. Five minutes later, N2 (flow rate=20 L/min) was flowed through the spectrophotometer. Spectroscopic measurements (300 nm to 700 nm) were taken every 5 min for 2 hours. Data analysis was performed by using linear regression from the data retrieved for all wavelengths.

purified HbS = molecular target: T4, purified HbS (Homo sapiens, UniProt P68871+P69905, E7V); test: HbS polymerization assay; assay type: biochemical; details: 75 μM compound; 50 μM HbS
T4 construct: HbS is purified by the CRO VIRUSYS, from blood obtained from homozygous sickle cell patients; tissue VIRUSYS (CRO that did the purification); host or cells: blood of homozygous sickle cell patients
Description: Polymerization assays are carried out in vitro using purified HbS exchanged into 1.8 M potassium phosphate buffer at pH 7.4. Using a slightly modified protocol (Antonini and Brunori, 1971). HbS is purified by the CRO VIRUSYS, from blood obtained from homozygous sickle cell patients through the Hemoglobinopathy Center at Children's Hospital Oakland Research Institute (CHORI) with Institutional Review Board approval. Compounds are prepared in 100% DMSO and a desired amount is added to 50 μM of purified HbS at a final DMSO concentration of 0.3%. Final potassium phosphate concentration is adjusted to 1.8 M using a combination of 2.5 M potassium phosphate stock solution and water at pH 7.4. The reaction mixture is incubated for an hour at 37° C. and then transferred into a 24-well plate for deoxygenation in a glove box containing 99.5% nitrogen and 0.5% oxygen. The 24-well plate is not covered and incubated at 4° C. on a plate cooler inside the glove box for one and a half hours. Fifty μl of the reaction mixture is transferred into a 96-well plate and the absorbance at 700 nm is measured every minute for one hour at 37° C. in a plate reader located inside the glove box. A plot of the absorbance against time is fitted using a Boltzman sigmoidal fit and the delay time (from zero to time at half Vmax) is measured. To compare and rank compounds, delay times are expressed as percent delay (% DT), which is defined as the difference in delay times for HbS/compound and HbS alone multiplied by 100 and divided by the delay time for HbS alone.
The ability of 5-HMF and compound 12 to delay HbS polymerization was evaluated as described in Example 2, above. Purified HbS (50 μM) was pre-incubated with 25 μM, 50 μM, or 100 μM of 5-HMF or compound 12, then passively de-oxygenated at 4° C. in 1.8 M potassium phosphate. Polymerization was induced via temperature jump from 4° C. to 37° C. Polymerization was quantified based on turbidity of the HbS solution under continued hypoxia.

[5] = Rat pharmacokinetics and blood/plasma partitioning (Example 1); assay type: in vivo, Rats (Sprague-Dawley); details: for level of compound in blood versus plasma, overall exposure / relative proportion in blood (as compared to plasma) at peak concentration (Cmax): dosed orally; for Vd / bioavailability / clearance / blood plasma ratio: male, Sprague-Dawley; for Vd / bioavailability: in vivo; for Vd / clearance: oral 10 mg/kg or intravenous 1 mg/kg; for Vd: read-out: Vss; for bioavailability: oral 10 mg/kg, intravenous 1 mg/kg; for clearance: plasma; for blood plasma ratio: whole blood and plasma, oral, 10 mg/kg
Description: This experiment was established and used in order to assess the pharmacokinetic (PK) properties of the compounds.
Sample collection and data analysis: Rats (Sprague-Dawley, male, 8-12[…] weeks old) were dosed with one of three compounds corresponding to compound 12, compound 22 or compound 23. The rats received oral (10 mg/kg) or intravenous (1 mg/kg) doses of the compound. Rats were fasted overnight before the experiments and provided with food after the 2 hour sampling time point.
Blood samples were collected at different time points. Blood was anti-coagulated by 3.2% TSC (trisodium citrate) and a portion was separated into plasma fraction by centrifugation and removal of blood cells. Plasma and lysed blood samples were anal) zed for drug concentration using LC-MS/MS. PK parameters were calculated by non compartmental analysis of the concentration-time profiles using WinNonLin software (Pharsight, Mountain View, Calif.). Apparent elimination half-life (t1/2) values were calculated as ln(2)/k. Area under the concentration-time curve (AUC) values were estimated using the linear trapezoidal method. AUClast values were calculated from the dosing time to the last measurable concentration. AUCinf values were calculated as the sum of the corresponding AUClast and the ratio of the last detectable concentration divided by k. Plasma clearance (Cl) is calculated from Dose/AUCinf. Volume of distribution at steady state (Vss) is calculated from Mean Residence Timeinf×Clss. Maximum concentration (Cmax) and time to Cmax (Tmax) was recorded as observed. The blood/plasma partitioning ratio was calculated at each experimental time point.

[6] = read-out: Blood/plasma (Ratio of exposure AUCINF)
[7] = read-out: Blood/plasma (Ratio of peak concentration)

Row | Structure (SMILES) | Whole Blood OEC (delta p50%) ([1]; [cmp] 1 mM) [%] | Whole Blood OEC (delta p50%) ([1]; [cmp] 3 mM) [%] | p50 [1] [mm Hg] | Hb in ODA (Δoxy state) (HbS [2]) | potency at increasing the oxygen affinity of HbS compared with 5-HMF (HbS [3]) | Hb in ODA (Δoxy state) (HbS [3]) | Viscosity (ΔcP) ([4]; [cmp] 8 mM) [cP] | Reverse Hemox delta p50% (class) [1] | Reverse Hemox delta p50% [1] [%] | R-T delta R (HbS/A; 9 μM compound) | R-T delta R (class) (HbS/A; 9 μM compound) | R-T delta R (HbS/A; 10 μM compound) | R-T delta R (class) (HbS/A; 10 μM compound) | Polymerization % DT (class) (purified HbS) | Polymerization % DT (percent delay) (purified HbS) [%] | level of compound in blood versus plasma, overall exposure [5] [fold] | relative proportion in blood (as compared to plasma) at peak concentration (Cmax) [5] [fold] | Vd [5] [L/kg] | bioavailability [5] [%] | clearance [5] [mL/min/kg] | further results
1 | COc1cc(C=O)c(OCc2cccnc2-c2[nH]ncc2C)cn1 [Compound 5, 2-methoxy-5-[[2-(4-methyl-1H-pyrazol-5-yl)pyridin-3-yl]methoxy]pyridine-4-carbaldehyde] | 49 | 71 | 18 | 2 | more potent at increasing the oxygen affinity of HbS than 5-hydroxy furfural | 10 | >2.4 |  |  |  |  |  |  |  |  |  |  |  |  |  | p50 (washed red blood cells; washed RBCs, 1 mM compound, control 30 mm Hg): 9 mm Hg
2 | COc1cc(C=O)c(OCc2cccnc2-c2ccnn2C(C)C)cn1 [Compound 9, 2-methoxy-5-[[2-(2-propan-2-ylpyrazol-3-yl)pyridin-3-yl]methoxy]pyridine-4-carbaldehyde] | 63 | >80 | 11 | 6 | more potent at increasing the oxygen affinity of HbS than 5-hydroxy furfural | 23 | >2.4 |  |  |  |  |  |  |  |  |  |  |  |  |  | Washed RBC OEC (delta p50%) (washed red blood cells; [Hb] 1 mM, [cmp] 1 mM): 69%; Viscosity (ΔcP) ([4]; [cmp] 1.6 mM): 2.3 cP
3 | COc1cc(C=O)c(OCc2cccnc2-c2ccnn2CC(F)F)cn1 [Compound 22, 5-[[2-[2-(2,2-difluoroethyl)pyrazol-3-yl]pyridin-3-yl]methoxy]-2-methoxypyridine-4-carbaldehyde] |  |  |  |  |  |  |  | +++ (a delta p50% of 50 or greater) | 68.69 | 31.02 | ++ (a delta R of between 30 and 50) | 36.25 | ++ (a delta R of between 30 and 50) | †† (activity >80% but ≦120%) | 90.22 | 5 | 5 | 3.1 | 6.6 | 9 | blood plasma ratio [5, 6]: 33; blood plasma ratio [5, 7]: 5
4 | COc1cc(C=O)c(OCc2cccnc2-c2ccccc2C)cn1 [Compound 23, 2-methoxy-5-[[2-(2-methylphenyl)pyridin-3-yl]methoxy] pyridine-4-carbaldehyde] |  |  |  |  |  |  |  | +++ (a delta p50% of 50 or greater) | 72.45 | 37.15 | ++ (a delta R of between 30 and 50) | 51.55 | +++ (a delta R of 50 or greater) | †† (activity >80% but ≦120%) | 98.19 | 1 | 3 | 3.15 | 1.8 | 13.7 | blood plasma ratio [5, 6]: 4; blood plasma ratio [5, 7]: 1

— patent US20160038474A1, “COMPOSITIONS AND METHODS FOR THE MODULATION OF HEMOGLOBIN (S)” (GLOBAL BLOOD THERAPEUTICS, INC., priority 2013, published 2016)
